# Source: paper PMC6688997 (Nature Communications, 2019)
# Tests used:
# Format in all cases: biochemical
# PKCι = PKCι (Homo sapiens, UniProt P41743); experiment: Kinase assay, ATP Km
# PASK = target: T1, PASK (Homo sapiens, UniProt Q96RG2); experiment: Kinase assay, ATP Km
# T1 construct: purchased Carna Biosciences
# PKD3 = target: T2, PKD3 (Homo sapiens, UniProt O94806); experiment: Kinase assay, ATP Km
# T2 construct: purchased Carna Biosciences
# PRKX = target: T3, PRKX (Homo sapiens, UniProt P51817); experiment: Kinase assay, ATP Km
# T3 construct: purchased Carna Biosciences
# T3 sequence (P51817 whole entry): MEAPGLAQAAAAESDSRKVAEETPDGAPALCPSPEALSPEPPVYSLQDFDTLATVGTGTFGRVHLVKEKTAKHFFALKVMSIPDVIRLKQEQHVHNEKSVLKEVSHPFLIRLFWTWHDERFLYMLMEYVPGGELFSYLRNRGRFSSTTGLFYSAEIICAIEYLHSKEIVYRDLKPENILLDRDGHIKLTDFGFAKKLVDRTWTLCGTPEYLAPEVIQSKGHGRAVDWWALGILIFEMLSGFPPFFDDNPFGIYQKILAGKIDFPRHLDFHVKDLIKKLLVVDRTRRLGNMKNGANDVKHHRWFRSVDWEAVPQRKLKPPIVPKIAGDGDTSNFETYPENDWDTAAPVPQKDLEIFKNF
# NTRK1 = target: T4, NTRK1 (Homo sapiens, UniProt P04629); experiment: Kinase assay, 1 mM ATP
# T4 construct: purchased Carna Biosciences, Inc. (Kobe, Japan)
# T4 sequence (P04629 33-796): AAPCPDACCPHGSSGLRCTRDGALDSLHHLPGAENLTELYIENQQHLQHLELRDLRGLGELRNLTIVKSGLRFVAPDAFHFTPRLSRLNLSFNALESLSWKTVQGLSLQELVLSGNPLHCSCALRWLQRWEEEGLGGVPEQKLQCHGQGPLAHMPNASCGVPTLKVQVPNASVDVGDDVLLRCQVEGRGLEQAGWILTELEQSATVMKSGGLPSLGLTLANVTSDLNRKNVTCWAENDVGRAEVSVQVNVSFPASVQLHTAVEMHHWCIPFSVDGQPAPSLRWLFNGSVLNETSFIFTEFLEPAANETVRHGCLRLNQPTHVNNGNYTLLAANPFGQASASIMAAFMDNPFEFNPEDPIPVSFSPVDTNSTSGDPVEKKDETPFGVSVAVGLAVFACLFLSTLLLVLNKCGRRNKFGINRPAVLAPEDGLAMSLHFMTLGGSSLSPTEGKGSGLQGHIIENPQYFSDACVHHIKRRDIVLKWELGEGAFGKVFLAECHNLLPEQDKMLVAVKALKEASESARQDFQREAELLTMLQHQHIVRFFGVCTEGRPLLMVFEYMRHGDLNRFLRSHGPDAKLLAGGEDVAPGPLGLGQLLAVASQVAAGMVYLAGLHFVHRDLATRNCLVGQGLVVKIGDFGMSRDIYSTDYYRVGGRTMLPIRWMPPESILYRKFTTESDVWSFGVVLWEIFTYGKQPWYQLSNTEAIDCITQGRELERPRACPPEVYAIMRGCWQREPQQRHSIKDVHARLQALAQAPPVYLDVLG
# ABL = ABL (Homo sapiens, UniProt P00519); experiment: Kinase assay, 1 mM ATP
# Procedure, shortened: (§1)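 Kinase activity was measured with an off-chip mobility shift assay that separates substrate from phosphorylated product. IC50 values were estimated by fitting a four-parameter logistic model.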
# BMX = target: T5, BMX (Homo sapiens, UniProt P51813); experiment: Kinase assay, 1 mM ATP
# T5 construct: purchased Carna Biosciences
# Procedure, shortened: as §1
# BRSK1 = BRSK1 (Homo sapiens, UniProt Q8TDC3); experiment: Kinase assay, 1 mM ATP
# Procedure, shortened: as §1
# BTK = BTK (Homo sapiens, UniProt Q06187); experiment: Kinase assay, 1 mM ATP
# Procedure, shortened: as §1
# CDK9/CycT1 = CDK9/CycT1 (Homo sapiens, UniProt P50750); experiment: Kinase assay, 1 mM ATP
# Procedure, shortened: as §1
# CHK2 = target: T6, CHK2 (Homo sapiens, UniProt O96017); experiment: Kinase assay, 1 mM ATP
# T6 construct: purchased Carna Biosciences
# Procedure, shortened: as §1
# CK1α = CK1α (Homo sapiens, UniProt P48729); experiment: Kinase assay, 1 mM ATP
# Procedure, shortened: as §1
# CaMK1α = CaMK1α (Homo sapiens, UniProt Q14012); experiment: Kinase assay, 1 mM ATP
# Procedure, shortened: as §1
# DAPK1 = DAPK1 (Homo sapiens, UniProt P53355); experiment: Kinase assay, 1 mM ATP
# Procedure, shortened: as §1
# EGFR = EGFR (Homo sapiens, UniProt P00533); experiment: Kinase assay, 1 mM ATP
# Procedure, shortened: as §1
# EGFR(L858R) = target: T7, EGFR(L858R) (Homo sapiens, UniProt P00533, L858R); experiment: Kinase assay, 1 mM ATP
# T7 construct: purchased Carna Biosciences
# Procedure, shortened: as §1
# EGFR(L861Q) = target: T8, EGFR(L861Q) (Homo sapiens, UniProt P00533, L861Q); experiment: Kinase assay, 1 mM ATP
# T8 construct: purchased Carna Biosciences
# Procedure, shortened: as §1
# EPHA6 = EPHA6 (Homo sapiens, UniProt Q9UF33); experiment: Kinase assay, 1 mM ATP
# EPHA6, sequence (Q9UF33 23-1036): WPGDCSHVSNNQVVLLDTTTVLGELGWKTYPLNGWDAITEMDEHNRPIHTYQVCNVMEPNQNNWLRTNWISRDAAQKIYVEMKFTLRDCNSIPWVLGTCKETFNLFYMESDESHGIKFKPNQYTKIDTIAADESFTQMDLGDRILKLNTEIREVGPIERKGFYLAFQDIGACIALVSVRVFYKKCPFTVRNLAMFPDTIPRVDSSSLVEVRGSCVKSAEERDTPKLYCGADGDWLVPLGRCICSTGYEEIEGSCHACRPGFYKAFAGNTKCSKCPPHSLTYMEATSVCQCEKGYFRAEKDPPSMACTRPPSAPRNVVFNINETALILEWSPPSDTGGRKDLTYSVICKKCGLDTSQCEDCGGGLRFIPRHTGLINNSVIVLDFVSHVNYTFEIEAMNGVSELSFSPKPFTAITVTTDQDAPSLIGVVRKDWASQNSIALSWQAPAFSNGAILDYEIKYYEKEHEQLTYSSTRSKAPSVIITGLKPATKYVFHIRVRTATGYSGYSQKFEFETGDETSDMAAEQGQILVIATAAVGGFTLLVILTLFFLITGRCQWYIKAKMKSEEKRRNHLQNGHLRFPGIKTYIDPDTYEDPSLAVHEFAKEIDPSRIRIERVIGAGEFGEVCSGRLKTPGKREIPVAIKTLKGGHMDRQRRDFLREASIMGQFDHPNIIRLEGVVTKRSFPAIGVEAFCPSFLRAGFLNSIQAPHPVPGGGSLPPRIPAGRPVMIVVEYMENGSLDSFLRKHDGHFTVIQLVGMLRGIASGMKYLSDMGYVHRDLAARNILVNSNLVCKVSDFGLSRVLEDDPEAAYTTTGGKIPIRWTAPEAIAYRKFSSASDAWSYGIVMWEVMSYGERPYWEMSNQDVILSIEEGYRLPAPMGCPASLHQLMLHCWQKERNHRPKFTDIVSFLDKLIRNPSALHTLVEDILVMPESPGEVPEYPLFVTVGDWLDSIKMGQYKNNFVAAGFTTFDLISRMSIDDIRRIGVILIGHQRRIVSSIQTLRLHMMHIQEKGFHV
# Procedure, shortened: as §1
# FGFR3 = target: T9, FGFR3 (Homo sapiens, UniProt P22607); experiment: Kinase assay, 1 mM ATP
# T9 construct: purchased Carna Biosciences
# Procedure, shortened: as §1
# FGR = FGR (Homo sapiens, UniProt P09769); experiment: Kinase assay, 1 mM ATP
# Procedure, shortened: as §1
# FRK = target: T10, FRK (Homo sapiens, UniProt P42685); experiment: Kinase assay, 1 mM ATP
# T10 construct: purchased Carna Biosciences
# Procedure, shortened: as §1
# GSK3β = GSK3β (Homo sapiens, UniProt P49841); experiment: Kinase assay, 1 mM ATP
# GSK3β, sequence (P49841 whole entry): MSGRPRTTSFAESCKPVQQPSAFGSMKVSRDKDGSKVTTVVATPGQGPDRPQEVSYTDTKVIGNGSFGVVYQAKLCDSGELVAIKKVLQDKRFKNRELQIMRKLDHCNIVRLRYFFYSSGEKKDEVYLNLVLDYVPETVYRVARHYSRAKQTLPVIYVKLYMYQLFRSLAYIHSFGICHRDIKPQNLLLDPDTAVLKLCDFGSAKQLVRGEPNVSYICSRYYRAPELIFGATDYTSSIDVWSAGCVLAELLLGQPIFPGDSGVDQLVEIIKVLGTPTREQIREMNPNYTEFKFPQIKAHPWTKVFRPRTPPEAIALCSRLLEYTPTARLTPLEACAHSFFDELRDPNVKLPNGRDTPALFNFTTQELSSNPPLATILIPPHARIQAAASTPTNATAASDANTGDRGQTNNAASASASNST
# Procedure, shortened: as §1
# HIPK4 = HIPK4 (Homo sapiens, UniProt Q8NE63); experiment: Kinase assay, 1 mM ATP
# Procedure, shortened: as §1
# INSR = target: T11, INSR (Homo sapiens, UniProt P06213); experiment: Kinase assay, 1 mM ATP
# T11 construct: purchased Carna Biosciences
# Procedure, shortened: as §1
# IRAK4 = IRAK4 (Homo sapiens, UniProt Q9NWZ3); experiment: Kinase assay, 1 mM ATP
# Procedure, shortened: as §1
# ITK = target: T12, ITK (Homo sapiens, UniProt Q08881); experiment: Kinase assay, 1 mM ATP
# T12 construct: purchased Carna Biosciences
# Procedure, shortened: as §1
# MER = target: T13, MER (Homo sapiens, UniProt Q12866); experiment: Kinase assay, 1 mM ATP
# T13 construct: purchased Carna Biosciences
# T13 sequence (Q12866 21-999): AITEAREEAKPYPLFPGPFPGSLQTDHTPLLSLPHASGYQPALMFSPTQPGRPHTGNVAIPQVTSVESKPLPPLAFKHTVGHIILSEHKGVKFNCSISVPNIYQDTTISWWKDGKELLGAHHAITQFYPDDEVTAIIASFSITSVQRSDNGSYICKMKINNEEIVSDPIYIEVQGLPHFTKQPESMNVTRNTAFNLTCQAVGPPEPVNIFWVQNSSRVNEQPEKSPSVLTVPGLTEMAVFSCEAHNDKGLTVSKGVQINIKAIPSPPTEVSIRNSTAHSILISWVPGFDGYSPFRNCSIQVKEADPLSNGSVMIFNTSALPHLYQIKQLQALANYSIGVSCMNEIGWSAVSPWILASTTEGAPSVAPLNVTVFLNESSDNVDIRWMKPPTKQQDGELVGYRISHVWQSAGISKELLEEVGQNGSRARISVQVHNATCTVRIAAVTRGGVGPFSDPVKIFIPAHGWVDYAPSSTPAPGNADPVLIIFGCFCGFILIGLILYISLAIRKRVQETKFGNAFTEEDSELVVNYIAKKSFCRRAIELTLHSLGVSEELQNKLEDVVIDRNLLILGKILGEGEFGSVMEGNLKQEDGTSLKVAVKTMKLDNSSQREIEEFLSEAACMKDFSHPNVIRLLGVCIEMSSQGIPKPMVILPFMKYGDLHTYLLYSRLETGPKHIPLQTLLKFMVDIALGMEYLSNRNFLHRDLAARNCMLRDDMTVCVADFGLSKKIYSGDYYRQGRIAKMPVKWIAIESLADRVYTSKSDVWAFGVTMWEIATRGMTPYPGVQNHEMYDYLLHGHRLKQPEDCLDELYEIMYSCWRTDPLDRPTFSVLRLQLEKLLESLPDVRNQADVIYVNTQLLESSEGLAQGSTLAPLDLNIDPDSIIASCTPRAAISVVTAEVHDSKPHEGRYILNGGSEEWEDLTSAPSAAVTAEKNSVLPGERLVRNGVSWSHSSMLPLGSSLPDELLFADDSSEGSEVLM
# Procedure, shortened: as §1
# NEK2 = NEK2 (Homo sapiens, UniProt P51955); experiment: Kinase assay, 1 mM ATP
# Procedure, shortened: as §1
# PDGFRα = target: T14, PDGFRα (Homo sapiens, UniProt P16234); experiment: Kinase assay, 1 mM ATP
# T14 construct: purchased Carna Biosciences
# Procedure, shortened: as §1
# PDGFRβ = target: T15, PDGFRβ (Homo sapiens, UniProt P09619); experiment: Kinase assay, 1 mM ATP
# T15 construct: purchased Carna Biosciences
# Procedure, shortened: as §1
# PKCε = target: T16, PKCε (Homo sapiens, UniProt Q02156); experiment: Kinase assay, 1 mM ATP
# T16 construct: purchased Carna Biosciences
# Procedure, shortened: as §1
# PLK1 = PLK1 (Homo sapiens, UniProt P53350); experiment: Kinase assay, 1 mM ATP
# Procedure, shortened: as §1
# PLK3 = target: T17, PLK3 (Homo sapiens, UniProt Q9H4B4); experiment: Kinase assay, 1 mM ATP
# T17 construct: purchased Carna Biosciences
# Procedure, shortened: as §1
# RET(Y791F) = target: T18, RET(Y791F) (Homo sapiens, UniProt P07949, Y791F); experiment: Kinase assay, 1 mM ATP
# T18 construct: purchased Carna Biosciences
# Procedure, shortened: as §1
# SGK = target: T19, SGK (Homo sapiens, UniProt O00141); experiment: Kinase assay, 1 mM ATP
# T19 construct: purchased Carna Biosciences
# Procedure, shortened: as §1
# SRM = target: T20, SRM (Homo sapiens, UniProt Q9H3Y6); experiment: Kinase assay, 1 mM ATP
# T20 construct: purchased Carna Biosciences
# T20 sequence (Q9H3Y6 whole entry): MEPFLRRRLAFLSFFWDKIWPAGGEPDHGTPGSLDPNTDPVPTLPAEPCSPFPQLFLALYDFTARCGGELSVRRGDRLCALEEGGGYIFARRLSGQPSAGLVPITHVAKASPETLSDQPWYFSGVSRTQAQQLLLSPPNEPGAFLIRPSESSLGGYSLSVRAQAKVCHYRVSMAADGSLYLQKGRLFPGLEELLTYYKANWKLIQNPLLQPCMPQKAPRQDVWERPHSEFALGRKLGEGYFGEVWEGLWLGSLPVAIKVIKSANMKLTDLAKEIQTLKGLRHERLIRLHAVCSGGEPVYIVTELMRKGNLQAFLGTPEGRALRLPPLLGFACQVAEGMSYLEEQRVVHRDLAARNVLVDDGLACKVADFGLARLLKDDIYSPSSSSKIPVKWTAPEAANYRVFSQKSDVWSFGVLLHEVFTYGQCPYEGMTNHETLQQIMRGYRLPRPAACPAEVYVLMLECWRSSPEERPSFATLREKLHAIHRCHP
# Procedure, shortened: as §1
# TEC = target: T21, TEC (Homo sapiens, UniProt P42680); experiment: Kinase assay, 1 mM ATP
# T21 construct: purchased Carna Biosciences
# Procedure, shortened: as §1
# TIE2 = target: T22, TIE2 (Homo sapiens, UniProt Q02763); experiment: Kinase assay, 1 mM ATP
# T22 construct: purchased Carna Biosciences
# Procedure, shortened: as §1
# TNK1 = target: T23, TNK1 (Homo sapiens, UniProt Q13470); experiment: Kinase assay, 1 mM ATP
# T23 construct: purchased Carna Biosciences
# T23 sequence (Q13470 whole entry): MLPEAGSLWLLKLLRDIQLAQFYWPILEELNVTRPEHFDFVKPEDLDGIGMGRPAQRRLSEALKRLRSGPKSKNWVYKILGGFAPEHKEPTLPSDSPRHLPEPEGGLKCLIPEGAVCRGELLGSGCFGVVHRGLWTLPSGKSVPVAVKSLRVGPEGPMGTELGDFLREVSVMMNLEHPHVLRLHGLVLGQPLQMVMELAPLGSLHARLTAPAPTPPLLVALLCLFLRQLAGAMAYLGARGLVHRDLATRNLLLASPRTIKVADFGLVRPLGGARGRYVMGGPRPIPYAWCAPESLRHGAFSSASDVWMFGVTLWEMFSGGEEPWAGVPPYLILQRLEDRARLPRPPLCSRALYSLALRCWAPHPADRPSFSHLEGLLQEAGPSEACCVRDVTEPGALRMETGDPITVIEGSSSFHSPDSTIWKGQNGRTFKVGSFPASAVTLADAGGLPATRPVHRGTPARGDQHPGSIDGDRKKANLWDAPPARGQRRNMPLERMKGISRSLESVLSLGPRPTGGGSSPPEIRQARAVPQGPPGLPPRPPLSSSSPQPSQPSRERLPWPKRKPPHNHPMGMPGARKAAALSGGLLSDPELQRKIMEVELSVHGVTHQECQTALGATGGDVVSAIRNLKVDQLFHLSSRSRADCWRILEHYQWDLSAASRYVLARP
# Procedure, shortened: as §1
# TYK2 = TYK2 (Homo sapiens, UniProt P29597); experiment: Kinase assay, 1 mM ATP
# Procedure, shortened: as §1
# TYRO3 = target: T24, TYRO3 (Homo sapiens, UniProt Q06418); experiment: Kinase assay, 1 mM ATP
# T24 construct: purchased Carna Biosciences
# Procedure, shortened: as §1
# p38α = p38α (Homo sapiens, UniProt Q16539); experiment: Kinase assay, 1 mM ATP
# p38α, sequence (Q16539 whole entry): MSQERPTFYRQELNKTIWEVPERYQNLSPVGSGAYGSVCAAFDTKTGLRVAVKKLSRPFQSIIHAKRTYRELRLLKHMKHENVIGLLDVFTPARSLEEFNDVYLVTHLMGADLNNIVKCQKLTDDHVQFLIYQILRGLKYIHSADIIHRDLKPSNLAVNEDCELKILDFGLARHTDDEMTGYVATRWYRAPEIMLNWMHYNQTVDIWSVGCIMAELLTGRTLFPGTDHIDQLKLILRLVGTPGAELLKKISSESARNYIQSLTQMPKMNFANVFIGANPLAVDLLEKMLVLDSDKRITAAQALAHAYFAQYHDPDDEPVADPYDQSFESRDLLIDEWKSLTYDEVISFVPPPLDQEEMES
# Procedure, shortened: as §1
smiles,measurement,setting,value
C[C@@H](N)COc1ccc(-c2cnc3ccc(N[C@H](C)c4cccc(F)c4)nn23)cc1.O=C(O)CCCCC(=O)O [DS-6051b],inhibition at 0.04 µM,PKCι,15.6%
same,inhibition at 0.04 µM,PASK,6.9%
same,inhibition at 0.04 µM,PKD3,3.7%
same,inhibition at 0.04 µM,PRKX,1.7%
same,inhibition at 0.2 µM,"NTRK1; 0.2μM, 1 mM ATP",100%
same,IC50,NTRK1; ATP: 1 mM,3.01 nM
same,inhibition at 0.2 µM,ABL,-1.1%
same,inhibition at 0.2 µM,BMX,10%
same,inhibition at 0.2 µM,BRSK1,-4.8%
same,inhibition at 0.2 µM,BTK,17.9%
same,inhibition at 0.2 µM,CDK9/CycT1,-2.9%
same,inhibition at 0.2 µM,CHK2,0.3%
same,inhibition at 0.2 µM,CK1α,-1%
same,inhibition at 0.2 µM,CaMK1α,-8.6%
same,inhibition at 0.2 µM,DAPK1,-0.6%
same,inhibition at 0.2 µM,EGFR,3.7%
same,inhibition at 0.2 µM,EGFR(L858R),0.7%
same,inhibition at 0.2 µM,EGFR(L861Q),-3.6%
same,inhibition at 0.2 µM,EPHA6,-5.7%
same,inhibition at 0.2 µM,FGFR3,1.3%
same,inhibition at 0.2 µM,FGR,6.3%
same,inhibition at 0.2 µM,FRK,8.1%
same,inhibition at 0.2 µM,GSK3β,-23.2%
same,inhibition at 0.2 µM,HIPK4,-1.6%
same,inhibition at 0.2 µM,INSR,9.4%
same,inhibition at 0.2 µM,IRAK4,-0.4%
same,inhibition at 0.2 µM,ITK,-2.5%
same,inhibition at 0.2 µM,MER,7.1%
same,inhibition at 0.2 µM,NEK2,-0.8%
same,inhibition at 0.2 µM,PDGFRα,5.7%
same,inhibition at 0.2 µM,PDGFRβ,3.1%
same,inhibition at 0.2 µM,PKCε,18.8%
same,inhibition at 0.2 µM,PLK1,-9.2%
same,inhibition at 0.2 µM,PLK3,-3.3%
same,inhibition at 0.2 µM,RET(Y791F),-4.3%
same,inhibition at 0.2 µM,SGK,-3.8%
same,inhibition at 0.2 µM,SRM,-3.1%
same,inhibition at 0.2 µM,TEC,-1.2%
same,inhibition at 0.2 µM,TIE2,-2.2%
same,inhibition at 0.2 µM,TNK1,12.7%
same,inhibition at 0.2 µM,TYK2,8.3%
same,inhibition at 0.2 µM,TYRO3,-1.2%
same,inhibition at 0.2 µM,p38α,-6.7%
